What was measured:
Type in all cases: in vivo
[1] = tested on: canarygrass (Phalaris minor); assay: Test C pre-/postemergence plant response
How it was run: (§1)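 Formulated in a surfactant-containing non-phytotoxic solvent, compounds were tested under controlled growth conditions as preemergence and postemergence treatments. Ratings from 0 (no effect) to 100 (complete control) were assigned visually relative to controls 15 to 25 days later.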

[2] = tested on: winter barley (Hordeum vulgare); assay: Test C pre-/postemergence plant response
How it was run: as §1

[3] = tested on: windgrass (Apera spica-venti); assay: Test C pre-/postemergence plant response
How it was run: as §1

[4] = tested on: wild mustard (Sinapis arvensis); assay: Test C pre-/postemergence plant response
How it was run: as §1

[5] = tested on: annual bluegrass (Poa annua); assay: Test C pre-/postemergence plant response
How it was run: as §1

[6] = tested on: winter wheat (Triticum aestivum); assay: Test C pre-/postemergence plant response
How it was run: as §1

[7] = tested on: downy bromegrass (Bromus tectorum); assay: Test C pre-/postemergence plant response
How it was run: as §1

[8] = tested on: wild oat (Avena fatua); assay: Test C pre-/postemergence plant response
How it was run: as §1

[9] = tested on: blackgrass (Alopecurus myosuroides); assay: Test C pre-/postemergence plant response
How it was run: as §1

[10] = tested on: pigweed (Amaranthus retroflexus); assay: Test C pre-/postemergence plant response
How it was run: as §1

[11] = tested on: Italian ryegrass (Lolium multiflorum); assay: Test C pre-/postemergence plant response
How it was run: as §1

[12] = tested on: spring barley (Hordeum vulgare); assay: Test C pre-/postemergence plant response
How it was run: as §1

[13] = tested on: green foxtail (Setaria viridis); assay: Test C pre-/postemergence plant response
How it was run: as §1

[14] = tested on: canarygrass (Phalaris minor); assay: Test B postemergence plant response; details: for Canarygrass plant response rating: 8 g ai/ha, postemergence, 0-100 scale; for Plant response rating, Canarygrass: Postemergence
How it was run: (§2)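 Visual injury ratings on a 0–100 scale, where 100 means complete control, were made 13 to 15 days after postemergence treatment of greenhouse-grown plants at the 1- to 4-leaf stage.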

[15] = tested on: winter barley (Hordeum vulgare); assay: Test B postemergence plant response; details: for Barley plant response rating: 8 g ai/ha, postemergence, 0-100 scale; for Plant response rating, Barley: Postemergence, scale 0 to 100, 0 no effect, 100 complete control
How it was run: as §2

[16] = tested on: windgrass (Apera spica-venti); assay: Test B postemergence plant response; details: for Windgrass plant response rating: 8 g ai/ha, postemergence, 0-100 scale; for Plant response rating, Windgrass: Postemergence
How it was run: as §2

[17] = tested on: chickweed (Stellaria media); assay: Test B postemergence plant response; details: for Chickweed plant response rating: 8 g ai/ha, postemergence, 0-100 scale; for Plant response rating, Chickweed: Postemergence
How it was run: as §2

[18] = Preemergence, 8 g ai/ha, scale 0 to 100 (0 no effect, 100 complete control)
[19] = Preemergence, 16 g ai/ha, scale 0 to 100 (0 no effect, 100 complete control)
[20] = Preemergence, 31 g ai/ha, scale 0 to 100 (0 no effect, 100 complete control)
[21] = Preemergence, 62 g ai/ha, scale 0 to 100, 0 no effect, 100 complete control
[22] = 31 g ai/ha, scale 0 to 100, 0 no effect, 100 complete control
[23] = 62 g ai/ha, scale 0 to 100, 0 no effect, 100 complete control
[24] = Postemergence, 8 g ai/ha, scale 0 to 100, 0 no effect, 100 complete control
[25] = Postemergence, 16 g ai/ha, scale 0 to 100, 0 no effect, 100 complete control
[26] = Postemergence, 31 g ai/ha, scale 0 to 100, 0 no effect, 100 complete control
[27] = Postemergence, 62 g ai/ha, scale 0 to 100, 0 no effect, 100 complete control

Structure (SMILES): Cc1cc(-c2ccc(Cl)cc2)nn1-c1c(OS(=O)(=O)c2ccccc2)cnn(C)c1=O [Compound 35]
- Plant response rating, Canarygrass [1, 18]: 0
- Plant response rating, Canarygrass [1, 19]: 0
- Plant response rating, Canarygrass [1, 20]: 50
- Plant response rating, Canarygrass [1, 21]: 90
- Plant response rating, Barley, Winter [2, 18]: 0
- Plant response rating, Barley, Winter [2, 20]: 0
- Plant response rating, Barley, Winter [2, 21]: 50
- Plant response rating, Windgrass [3, 18]: 0
- Plant response rating, Windgrass [3, 20]: 15
- Plant response rating, Windgrass [3, 21]: 80
- Plant response rating, Mustard, Wild [4, 20]: 0
- Plant response rating, Mustard, Wild [4, 21]: 0
- Plant response rating, Bluegrass [5, 18]: 0
- Plant response rating, Bluegrass [5, 19]: 0
- Plant response rating, Bluegrass [5, 20]: 0
- Plant response rating, Bluegrass [5, 21]: 0
- Plant response rating, Wheat, Winter [6, 18]: 0
- Plant response rating, Wheat, Winter [6, 19]: 10
- Plant response rating, Wheat, Winter [6, 20]: 25
- Plant response rating, Wheat, Winter [6, 21]: 70
- Plant response rating, Bromegrass, Downy [7, 18]: 0
- Plant response rating, Bromegrass, Downy [7, 19]: 0
- Plant response rating, Bromegrass, Downy [7, 20]: 50
- Plant response rating, Bromegrass, Downy [7, 21]: 60
- Plant response rating, Oat, Wild [8, 18]: 0
- Plant response rating, Oat, Wild [8, 19]: 0
- Plant response rating, Oat, Wild [8, 20]: 30
- Plant response rating, Oat, Wild [8, 21]: 70
- Plant response rating, Blackgrass [9, 18]: 0
- Plant response rating, Blackgrass [9, 19]: 30
- Plant response rating, Blackgrass [9, 20]: 75
- Plant response rating, Blackgrass [9, 21]: 75
- Plant response rating, Pigweed [10, 18]: 0
- Plant response rating, Pigweed [10, 20]: 0
- Plant response rating, Pigweed [10, 21]: 0
- Plant response rating, Ryegrass, Italian [11, 18]: 0
- Plant response rating, Ryegrass, Italian [11, 19]: 35
- Plant response rating, Ryegrass, Italian [11, 20]: 98
- Plant response rating, Ryegrass, Italian [11, 21]: 100
- Plant response rating, Barley, Spring [12, 18]: 0
- Plant response rating, Barley, Spring [12, 19]: 0
- Plant response rating, Barley, Spring [12, 20]: 20
- Plant response rating, Barley, Spring [12, 21]: 65
- Plant response rating, Foxtail, Green [13, 18]: 15
- Plant response rating, Foxtail, Green [13, 20]: 40
- Plant response rating, Foxtail, Green [13, 21]: 100
- Canarygrass plant response rating [14]: 0
- Plant response rating, Canarygrass ([14]; 16 g ai/ha, scale 0 to 100): 0
- Plant response rating, Canarygrass [14, 22]: 5
- Plant response rating, Canarygrass [14, 23]: 45
- Barley plant response rating [15]: 0
- Plant response rating, Barley ([15]; 16 g ai/ha): 0
- Plant response rating, Barley ([15]; 31 g ai/ha): 5
- Plant response rating, Barley ([15]; 62 g ai/ha): 35
- Windgrass plant response rating [16]: 0
- Plant response rating, Windgrass ([16]; 16 g ai/ha, scale 0 to 100): 0
- Plant response rating, Windgrass [16, 23]: 40
- Chickweed plant response rating [17]: 0
- Plant response rating, Chickweed ([17]; 16 g ai/ha, scale 0 to 100): 0
- Plant response rating, Chickweed [17, 22]: 0
- Plant response rating, Chickweed [17, 23]: 0

Structure (SMILES): Cc1cc(-c2ccc(C(F)(F)F)c(F)c2)nn1-c1c(O)c(C(F)(F)F)nn(C)c1=O [Compound 44]
- Plant response rating, Canarygrass [1, 24]: 75
- Plant response rating, Canarygrass [1, 25]: 80
- Plant response rating, Canarygrass [1, 26]: 90
- Plant response rating, Canarygrass [1, 27]: 100
- Plant response rating, Canarygrass [1, 18]: 30
- Plant response rating, Canarygrass [1, 19]: 65
- Plant response rating, Canarygrass [1, 20]: 75
- Plant response rating, Canarygrass [1, 21]: 85
- Plant response rating, Barley, Winter [2, 24]: 20
- Plant response rating, Barley, Winter [2, 25]: 75
- Plant response rating, Barley, Winter [2, 26]: 90
- Plant response rating, Barley, Winter [2, 27]: 95
- Plant response rating, Barley, Winter [2, 18]: 0
- Plant response rating, Barley, Winter [2, 19]: 50
- Plant response rating, Barley, Winter [2, 20]: 75
- Plant response rating, Barley, Winter [2, 21]: 75
- Plant response rating, Windgrass [3, 24]: 50
- Plant response rating, Windgrass [3, 25]: 90
- Plant response rating, Windgrass [3, 26]: 95
- Plant response rating, Windgrass [3, 27]: 100
- Plant response rating, Windgrass [3, 18]: 100
- Plant response rating, Windgrass [3, 19]: 100
- Plant response rating, Windgrass [3, 20]: 100
- Plant response rating, Windgrass [3, 21]: 100
- Plant response rating, Mustard, Wild [4, 24]: 0
- Plant response rating, Mustard, Wild [4, 25]: 0
- Plant response rating, Mustard, Wild [4, 26]: 0
- Plant response rating, Mustard, Wild [4, 27]: 0
- Plant response rating, Mustard, Wild [4, 18]: 0
- Plant response rating, Mustard, Wild [4, 19]: 0
- Plant response rating, Mustard, Wild [4, 20]: 0
- Plant response rating, Bluegrass [5, 24]: 0
- Plant response rating, Bluegrass [5, 25]: 0
- Plant response rating, Bluegrass [5, 26]: 0
- Plant response rating, Bluegrass [5, 27]: 0
- Plant response rating, Bluegrass [5, 18]: 0
- Plant response rating, Bluegrass [5, 19]: 0
- Plant response rating, Bluegrass [5, 20]: 0
- Plant response rating, Bluegrass [5, 21]: 0
- Plant response rating, Wheat, Winter [6, 24]: 75
- Plant response rating, Wheat, Winter [6, 25]: 80
- Plant response rating, Wheat, Winter [6, 26]: 95
- Plant response rating, Wheat, Winter [6, 27]: 98
- Plant response rating, Wheat, Winter [6, 18]: 40
- Plant response rating, Wheat, Winter [6, 19]: 65
- Plant response rating, Wheat, Winter [6, 21]: 70
- Plant response rating, Bromegrass, Downy [7, 24]: 15
- Plant response rating, Bromegrass, Downy [7, 25]: 40
- Plant response rating, Bromegrass, Downy [7, 26]: 65
- Plant response rating, Bromegrass, Downy [7, 27]: 75
- Plant response rating, Bromegrass, Downy [7, 18]: 0
- Plant response rating, Bromegrass, Downy [7, 19]: 20
- Plant response rating, Bromegrass, Downy [7, 20]: 50
- Plant response rating, Bromegrass, Downy [7, 21]: 80
- Plant response rating, Oat, Wild [8, 24]: 100
- Plant response rating, Oat, Wild [8, 25]: 100
- Plant response rating, Oat, Wild [8, 26]: 100
- Plant response rating, Oat, Wild [8, 27]: 100
- Plant response rating, Oat, Wild [8, 18]: 50
- Plant response rating, Oat, Wild [8, 19]: 75
- Plant response rating, Oat, Wild [8, 20]: 80
- Plant response rating, Oat, Wild [8, 21]: 90
- Plant response rating, Blackgrass [9, 24]: 90
- Plant response rating, Blackgrass [9, 25]: 98
- Plant response rating, Blackgrass [9, 26]: 100
- Plant response rating, Blackgrass [9, 27]: 100
- Plant response rating, Blackgrass [9, 19]: 25
- Plant response rating, Blackgrass [9, 20]: 100
- Plant response rating, Blackgrass [9, 21]: 100
- Plant response rating, Pigweed [10, 24]: 0
- Plant response rating, Pigweed [10, 25]: 0
- Plant response rating, Pigweed [10, 26]: 0
- Plant response rating, Pigweed [10, 27]: 0
- Plant response rating, Pigweed [10, 18]: 0
- Plant response rating, Pigweed [10, 19]: 20
- Plant response rating, Pigweed [10, 20]: 20
- Plant response rating, Pigweed [10, 21]: 20
- Plant response rating, Ryegrass, Italian [11, 24]: 90
- Plant response rating, Ryegrass, Italian [11, 25]: 98
- Plant response rating, Ryegrass, Italian [11, 26]: 100
- Plant response rating, Ryegrass, Italian [11, 27]: 100
- Plant response rating, Ryegrass, Italian [11, 18]: 90
- Plant response rating, Ryegrass, Italian [11, 19]: 100
- Plant response rating, Ryegrass, Italian [11, 20]: 100
- Plant response rating, Ryegrass, Italian [11, 21]: 100
- Plant response rating, Barley, Spring [12, 24]: 60
- Plant response rating, Barley, Spring [12, 25]: 95
- Plant response rating, Barley, Spring [12, 26]: 95
- Plant response rating, Barley, Spring [12, 27]: 98
- Plant response rating, Barley, Spring [12, 18]: 0
- Plant response rating, Barley, Spring [12, 19]: 60
- Plant response rating, Barley, Spring [12, 20]: 60
- Plant response rating, Barley, Spring [12, 21]: 75
- Plant response rating, Foxtail, Green [13, 24]: 50
- Plant response rating, Foxtail, Green [13, 25]: 95
- Plant response rating, Foxtail, Green [13, 26]: 98
- Plant response rating, Foxtail, Green [13, 27]: 100
- Plant response rating, Foxtail, Green [13, 18]: 15
- Plant response rating, Foxtail, Green [13, 19]: 90
- Plant response rating, Foxtail, Green [13, 20]: 100
- Plant response rating, Foxtail, Green [13, 21]: 100
- Canarygrass plant response rating [14]: 50
- Plant response rating, Canarygrass ([14]; 16 g ai/ha, scale 0 to 100): 90
- Plant response rating, Canarygrass [14, 22]: 90
- Barley plant response rating [15]: 15
- Plant response rating, Barley ([15]; 16 g ai/ha): 20
- Plant response rating, Barley ([15]; 31 g ai/ha): 20
- Plant response rating, Barley ([15]; 62 g ai/ha): 20
- Windgrass plant response rating [16]: 85
- Plant response rating, Windgrass ([16]; 16 g ai/ha, scale 0 to 100): 85
- Plant response rating, Windgrass [16, 23]: 100
- Chickweed plant response rating [17]: 0
- Plant response rating, Chickweed ([17]; 16 g ai/ha, scale 0 to 100): 0
- Plant response rating, Chickweed [17, 22]: 0
- Plant response rating, Chickweed [17, 23]: 0

Source: US20100267561A1, “HERBICIDAL PYRIDAZINONE DERIVATIVES” (priority 2007, published 2010)
